Read-outs that look alike come from different tables or passages of the source.
Tests used:
[1] = test system: Alternaria solani; assay: Alternaria test (tomato)/preventive; assay type: in vivo; conditions: preventive, 500 ppm, evaluated 7 days after inoculation
Description: The plants remain for one day in an incubation cabinet at approximately 22° C. and a relative atmospheric humidity of 100%. Then the plants are placed in an incubation cabinet at approximately 20° C. and a relative atmospheric humidity of 96%.

[2] = test system: Puccinia recondita; assay: Puccinia test (wheat)/preventive; assay type: in vivo; conditions: preventive, 500 ppm, evaluated 7-9 days after inoculation
Description: (§1) The plants remain for 48 hours in an incubation cabinet at 22° C. and a relative atmospheric humidity of 100%. Then the plants are placed in a greenhouse at a temperature of approximately 20° C. and a relative atmospheric humidity of approximately 80%.

[3] = test system: Pyrenophora teres; assay: Pyrenophora test (barley)/preventive; assay type: in vivo; conditions: preventive, 500 ppm, evaluated 7-9 days after inoculation
Description: as §1

[4] = test system: Fusarium nivale (var. majus); assay: Fusarium nivale (var. majus)-test (wheat)/preventive; assay type: in vivo; conditions: preventive; for Efficacy: evaluated 5 days after inoculation
Description: After the spray coating has been dried, the plants are slightly injured by using a sandblast and afterwards they are sprayed with a conidia suspension of Fusarium nivale (var. majus). The plants are placed in the greenhouse under a translucent incubation cabinet at a temperature of approximately 10° C. and a relative atmospheric humidity of approximately 100%.

[5] = logP by HPLC on reversed-phase column (EEC Directive 79/831 Annex V.A8); assay type: physicochemical
Description: In table 1, the logP values were determined in accordance with EEC Directive 79/831 Annex V.A8 by HPLC (High Performance Liquid Chromatography) on a reversed-phase column (C 18), using the method described below: Temperature: 40° C.; Mobile phases: 0.1% aqueous formic acid and acetonitrile; linear gradient from 10% acetonitrile to 90% acetonitrile. Calibration was carried out using unbranched alkan-2-ones (comprising 3 to 16 carbon atoms) with known logP values (determination of the logP values by the retention times using linear interpolation between two successive alkanones). lambda-max-values were determined using UV-spectra from 200 nm to 400 nm and the peak values of the chromatographic signals.

[6] = test system: Blumeria graminis f.sp. hordei; assay: Blumeria test (barley)/preventive; assay type: in vivo; conditions: preventive, 500 ppm, evaluated 7 days after inoculation
Description: After the spray coating has been dried, the plants are dusted with spores of Blumeria graminis f.sp. hordei. The plants are placed in the greenhouse at a temperature of approximately 18° C. and a relative atmospheric humidity of approximately 80% to promote the development of mildew pustules.

[7] = test system: Sphaerotheca fuliginea; assay: Sphaerotheca test (cucumber)/preventive; assay type: in vivo; conditions: preventive, 500 ppm, evaluated 7 days after inoculation
Description: Then the plants are placed in a greenhouse at approximately 23° C. and a relative atmospheric humidity of approximately 70%.

[8] = test system: Venturia inaequalis; assay: Venturia test (apples)/preventive; assay type: in vivo; conditions: preventive, 100 ppm, evaluated 10 days after inoculation
Description: Venturia Test (Apples)/Preventive […] After the spray coating has dried on, the plants are inoculated with an aqueous conidia suspension of the causal agent of apple scab (Venturia inaequalis) and then remain for 1 day in an incubation cabinet at approximately 20° C. and a relative atmospheric humidity of 100%.

[9] = test system: Uromyces appendiculatus; assay: Uromyces test (beans)/preventive; assay type: in vivo; conditions: preventive, 100 ppm, evaluated 10 days after inoculation
From the text: Uromyces Test (Beans)/Preventive

[10] = test system: Botrytis cinerea; assay: Botrytis test (beans)/preventive; assay type: in vivo; conditions: preventive, 100 ppm, lesion size 2 days after inoculation
Description: Botrytis Test (Beans)/Preventive
• Solvent: 24.5 parts by weight of acetone • 24.5 parts by weight of N,N-dimethylformamide • Emulsifier: 1 part by weight of alkylaryl polyglycol ether
After the spray coating has dried on, 2 small pieces of agar covered with growth of Botrytis cinerea are placed on each leaf. The inoculated plants are placed in a darkened chamber at 20° C. and a relative atmospheric humidity of 100%.
2 days after the inoculation, the size of the lesions on the leaves is evaluated.

[11] = test system: Phakopsora pachyrhizi; assay: Phakopsora test (soybeans)/protective; assay type: in vivo; conditions: protective, 250 ppm, evaluated 11 days after inoculation
From the text: Phakopsora Test (Soybeans)/Protective

[12] = HPLC, reversed-phase C 18, 40° C., 0.1% aqueous formic acid and acetonitrile gradient

logP [5, 12] | SMILES | Efficacy [1] | Efficacy [2] | Efficacy [3] | further results
3.74 | CC(C)CCc1sccc1NC(=O)c1c(C(F)F)nn(C)c1Cl [Example 1] | 100% | 95% | 100% | Efficacy [6]: 94%; Efficacy ([4]; 500 ppm): 80%
3.70 | CCCC(C)c1sccc1NC(=O)c1c(C(F)F)nn(C)c1Cl (stereo not shown) [Example 2] | 94% | 100% | 100% | –
4.03 | CCC(CC)Cc1sccc1NC(=O)c1c(C(F)F)nn(C)c1Cl [Example 5] | 100% | 90% | 100% | –
4.01 | Cn1nc(C(F)F)c(C(=O)Nc2ccsc2CCC(C)(C)C)c1Cl [Example 6] | 95% | 100% | 100% | Efficacy [7]: 89%; Efficacy [6]: 94%; Efficacy ([4]; 500 ppm): 100%
4.25 | CCCCC(C)c1sccc1NC(=O)c1c(C(F)F)nn(C)c1Cl (stereo not shown) [Example 7] | – | 100% | 95% | Efficacy ([4]; 500 ppm): 90%
4.13 | CCCCC(C)c1sccc1NC(=O)c1c(C(F)F)nn(C)c1Cl (stereo not shown) [Example 8] | 94% | 95% | 100% | –
4.07 | CCC(c1sccc1NC(=O)c1c(C(F)F)nn(C)c1Cl)C(C)C (stereo not shown) [Example 9] | 94% | 80% | 100% | –
4.41 | CCC(C)C(C)Cc1sccc1NC(=O)c1c(C(F)F)nn(C)c1Cl (stereo not shown) [Example 13] | 95% | 90% | 100% | Efficacy [6]: 100%; Efficacy ([4]; 500 ppm): 100%
4.46 | CCC(CC(C)C)c1sccc1NC(=O)c1c(C(F)F)nn(C)c1Cl (stereo not shown) [Example 15] | 88% | 90% | 100% | Efficacy [6]: 94%
4.45 | CC(C)CCC(C)c1sccc1NC(=O)c1c(C(F)F)nn(C)c1Cl (stereo not shown) [Example 16] | 88% | 100% | 94% | –
4.29 | CC(CC(C)(C)C)c1sccc1NC(=O)c1c(C(F)F)nn(C)c1Cl (stereo not shown) [Example 17] | 94% | 100% | 94% | Efficacy [7]: 100%
4.30 | Cn1nc(C(F)F)c(C(=O)Nc2ccsc2CC[Si](C)(C)C)c1Cl [Example 18] | 80% | 100% | 100% | Efficacy [7]: 98%; Efficacy [8]: 94%; Efficacy [9]: 100%; Efficacy [10]: 91%; Efficacy [6]: 92%; Efficacy ([4]; 500 ppm): 100%
4.26 | CC=C(c1sccc1NC(=O)c1c(C(F)F)nn(C)c1Cl)C(C)C [Example 27] | 75% | 80% | 89% | –
4.23 | CCC(C)=C(C)c1sccc1NC(=O)c1c(C(F)F)nn(C)c1Cl [Example 28] | 94% | 80% | 100% | –
4.41 | CCC(C)C(C)=Cc1sccc1NC(=O)c1c(C(F)F)nn(C)c1Cl (stereo not shown) [Example 31] | – | – | 70% | –

The next lines start with the molecule.

SMILES | logP [5, 12] | Efficacy [1] | Efficacy [2] | Efficacy [3] | further results
CCC=C(C)c1sccc1NC(=O)c1c(C(F)F)nn(C)c1Cl (mixture of isomers) [Example 22] | – | 94% | 80% | 94% | –
CCCC=C(C)c1sccc1NC(=O)c1c(C(F)F)nn(C)c1Cl (mixture of isomers) [Example 26] | – | 75% | – | 89% | –
CCC=C(CCC)c1sccc1NC(=O)c1c(C(F)F)nn(C)c1Cl (mixture of isomers) [Example 32] | – | – | 80% | – | –
CC(=CC(C)(C)C)c1sccc1NC(=O)c1c(C(F)F)nn(C)c1Cl (mixture of isomers) [Example 33] | – | 88% | 95% | 94% | –
CC(=CCC(C)C)c1sccc1NC(=O)c1c(C(F)F)nn(C)c1Cl (mixture of isomers) [Example 34] | – | – | – | 78% | –
CC(C)CC(C)c1sccc1NC(=O)c1cn(C)nc1C(F)(F)F (stereo not shown) [Example 1.13 from EP-0737682, 1-methyl-N-[2-(4-methylpentan-2-yl)-3-thienyl]-3-(trifluoromethyl)-1H-pyrazole-4-carboxamide, reference compound] | – | – | – | – | Efficacy ([4]; 250 ppm): 14%; Efficacy ([4]; 500 ppm): 43%; protection ([4]; dose of 250 ppm and 500 ppm (text summary of table G2)): less than 50%
CC(C)CC(C)c1sccc1NC(=O)c1c(C(F)F)nn(C)c1F (stereo not shown) [Example 4] | 3.94 | 100% | 100% | 100% | Efficacy [7]: 100%; Efficacy [8]: 100%; Efficacy [9]: 100%; Efficacy [10]: 97%; Efficacy [6]: 100%; Efficacy [11]: 99%
CCC(C)C(C)c1sccc1NC(=O)c1c(C(F)F)nn(C)c1Cl (stereo not shown) [Example 10] | – | – | 90% | 100% | logP [5]: 3.99
CC(CCCC#N)c1sccc1NC(=O)c1c(C(F)F)nn(C)c1Cl (stereo not shown) [Example 11] | – | – | 100% | 94% | logP [5]: 2.57
Cn1nc(C(F)F)c(C(=O)Nc2ccsc2CC2CCCCC2)c1Cl [Example 12] | 4.27 | 100% | 95% | 100% | Efficacy [6]: 94%
CCCC(CCC)c1sccc1NC(=O)c1c(C(F)F)nn(C)c1Cl [Example 14] | – | – | 70% | 94% | logP [5]: 4.54
Cn1nc(C(F)F)c(C(=O)Nc2ccsc2CC[Si](C)(C)C)c1F [Example 19] | 4.06 | 90% | 100% | 100% | Efficacy [7]: 100%; Efficacy [8]: 99%; Efficacy [9]: 100%; Efficacy [10]: 100%; Efficacy [6]: 100%; Efficacy ([4]; 500 ppm): 100%
Cn1nc(C(F)F)c(C(=S)Nc2ccsc2CC[Si](C)(C)C)c1F [Example 20] | – | – | – | – | logP [5]: 4.46
CC(c1sccc1NC(=O)c1c(C(F)F)nn(C)c1Cl)C1CCCCC1 (stereo not shown) [Example 21] | 4.56 | 95% | 95% | 100% | –
Cn1nc(C(F)F)c(C(=O)Nc2ccsc2C=CC(C)(C)C)c1Cl [Example 23] | 3.92 | 70% | 90% | 80% | –
CCC(=Cc1sccc1NC(=O)c1c(C(F)F)nn(C)c1Cl)CC [Example 24] | – | – | 90% | 90% | logP [5]: 4.06
CCCCC=Cc1sccc1NC(=O)c1c(C(F)F)nn(C)c1Cl [Example 25] | – | – | – | – | logP [5]: 4.12
Cn1nc(C(F)F)c(C(=O)Nc2ccsc2C=C2CCCCC2)c1Cl [Example 30] | – | 70% | – | 80% | logP [5]: 4.25
C=C(c1sccc1NC(=O)c1c(C(F)F)nn(C)c1Cl)C1CCCCC1 [Example 36] | – | – | 80% | 95% | –
CC=C(c1ccccc1)c1sccc1NC(=O)c1c(C(F)F)nn(C)c1Cl [Example 37] | – | – | – | – | logP [5]: 3.70
Cn1nc(C(F)F)c(C(=O)Nc2ccsc2-c2ccccc2)c1F [Example 38] | – | – | – | – | logP [5]: 3.11
Cc1ccc(-c2ccsc2NC(=O)c2c(C(F)F)nn(C)c2F)cc1 [Example 40] | – | – | – | – | logP [5]: 3.60
Cn1nc(C(F)F)c(C(=O)Nc2cc(-c3ccc(Cl)cc3)cs2)c1F [Example 41] | – | – | – | – | logP [5]: 3.87
